PMC7503848 (International Journal of Molecular Sciences, 2020)
Like-named read-outs stand apart in the source and are kept apart here. No end group written: not given here.

Legend:
[1] = molecular target: Myosin A-pTRGnn (myosin A tail, bacterial two-hybrid fusion) (Plasmodium falciparum) (UniProt Q8IDR3); assay: two-hybrid; bacterial two-hybrid, liquid β-galactosidase assay, relative Miller units, average of three assays
myosin A tail [2] = format: cell-based, Plasmodium falciparum
myosin A/MTIP complex [3] = assay: Competitive ELISA, inhibition of myosin A/MTIP interaction; format: binding, Plasmodium falciparum; settings: 500 ng myosin A tail coated, MTIP 1 µM, ZA1 0, 0.5, 1, 2, 5 µM, 2 h 37 °C, anti-MTIP, 450 nm, triplicates
Description: For ELISA-based inhibition of the interaction between MyoA/MTIP complex using ZA1, 500 ng peptide was coated on Maxisorb ELISA plates, followed by overnight blocking at 4 °C. The bound peptide was overlaid with MTIP (1 µM) for 2 h at 37 °C. The plates were washed with wash buffer (1 × PBS, 0.05% Tween-20) thrice and overlaid with increasing concentrations of ZA1 (0 µM, 0.5 µM, 1 µM, 2 µM, 5 µM) for 2 h at 37 °C. […] Optical density was taken at 450 nm. All wells were put in triplicates.

myosin A tail [4] = assay: Isothermal titration calorimetry, myosin A tail into ZA1; format: binding, Plasmodium falciparum; settings: ITC200, 25 °C, phosphate buffer; 150 µM myosin A tail in syringe, 10 µM ZA1 in cell; single site model
Description: ITC experiments were performed using ITC200 Microcalorimeter (Malvern, UK) at 25 °C in phosphate buffer. The cell and syringe volumes were kept 310 µL and 40 µL, respectively. The syringe was loaded with 100 µM MyoA tail for MyoA/MTIP interaction study and 150 µM for MyoA/ZA1 interaction. The sample cell was loaded with 10 µM each of MTIP and ZA1. MTIP and ZA1 were titrated using MyoA tail in injections of 2 µL each except for the first injection that was 0.4 µL. In between each titration, a 150-s interval for stirring was kept to ensure that the signal returns to baseline. Throughout the experiment, constant stirring at 300 rpm was maintained to ensure proper mixing of reaction components. For both experiments, a corresponding buffer control was also set up in which PBS was taken in the syringe. The enthalpy changes of titrations were measured, and the baseline values were subtracted from the test samples. The data analysis was carried out using Origin software and curve-fitted to obtain stoichiometry (N), dissociation constant (Kd), and enthalpy change (ƍH).

MTIP = MTIP (Plasmodium falciparum, UniProt Q8I4W8); assay: Competitive ITC, pre-bound Myosin A-ZA1 complex into MTIP; format: binding; settings: complex in syringe, MTIP in cell
Description: Figure S1: Myosin A tail and expression of MTIP. (a) Synthesized Myosin A tail peptide (2.5 kDa) resolved on Tris-tricine polyacrylamide gel.
(b) Purified MTIP-His by Ni-NTA Column chromatography. Commassie stained 15% polyacrylamide gel. Lane M: Marker, Lane 1: Purified MTIP. (17.4 kDa). Western blot of purified MTIP-His using anti-MTIP.
Figure S2: Negative control for ELISA and ITC experiments. (a) 500 ng non-specific Mycobacterial protein ESAT6 was coated on ELISA plates and indicated concentrations of ZA1 and MTIP were overlaid respectively. No interaction was observed between the coated and overlaid proteins. (b) The raw calorimetric data denoting the amount of heat produced following each injection of Myosin A from syringe into cell containing buffer only. No heat changes were observed when Myosin A was added into buffer. (c) Heat changes for competitive binding when pre-bound Myosin A-ZA1 complex is titrated from syringe into MTIP in the cell. […]
break when added into MTIP. […]

myosin A-MTIP complex = assay: Competitive ITC, pre-bound myosin A-MTIP complex into ZA1; format: binding, Plasmodium falciparum; settings: 25 °C, pre-bound myosin A-MTIP complex (150 µM each) in syringe, 10 µM ZA1 in cell
Description: For the competitive ITC experiment, a pre-bound complex of MyoA-MTIP in an equal molar ratio (150 µM each) was taken in the syringe. The complex was used to titrate ZA1 (10 µM) present in the cell. As a control, the pre-bound MyoA-MTIP complex was titrated in buffer only. All parameters were kept identical to the one-on-one ITC experiment. Origin software was used for data analysis and for calculating binding parameters like stoichiometry (N), binding constant (Kd), and enthalpy change (ƍH).

ESAT6 [5] = assay: ELISA-based specificity control with unrelated protein ESAT6; format: binding, Mycobacterium tuberculosis; settings: 500 ng ESAT6 coated, test protein overlaid, 450 nm
Excerpt: (§1) All wells were put up in triplicates.

myosin A/MTIP complex [6] = assay: Bacterial three-hybrid assay, disruption of myosin A/MTIP complex; format: cell-based, Plasmodium falciparum
Excerpt: For bacterial three-hybrid experiments, MyoA-pTRG and MTIP-pBT were used to co-transform R1 competent cells. The resulting co-transformants were checked for the presence of both plasmids by PCR using gene and vector-specific primers (MyoA For/pTRG Rev, MTIP For/pBT Rev). The resulting blue colonies were used to prepare competent cells that were subsequently transformed with ZA1-pMTSA or control pMTSA plasmid and plated on X-gal indicator plates, both in the presence or absence of L-arabinose (2% w/v). The plates were incubated at 30 °C for 48 h. The color of the colonies indicated the formation or disruption of myosin A/MTIP complex. The background and validation of bacterial three-hybrid assay have been described previously.
An arabinose gradient assay in liquid culture was performed, as described previously. Briefly, the mid-log phase culture was induced with varying concentrations of L-arabinose (0–4 mM) for 3 h at 37 °C. The cells were pelleted, and the levels of β-galactosidase were measured. E. coli BL21 (DE3) cells were induced with varying concentrations of L-arabinose (as described in the arabinose gradient assay). Whole-cell lysates of a 10 mL culture were used to analyze the expression of ZA1 using an anti-His antibody (1:2000 dilution).

myosin A tail [7] = assay: ELISA-based interaction assay, ZA1 on coated myosin A tail; format: binding, Plasmodium falciparum; settings: 500 ng myosin A tail coated, ZA1-His 0–2.5 µM overlaid, 2 h 37 °C, anti-His, 450 nm, triplicates
Excerpt: The interaction between myosin A tail and ZA1 was confirmed through multiple protein–protein interaction studies. […] For this, myosin A tail was coated on the ELSIA plates, followed by overlaying of ZA1. After stringent washing, the binding of overlaid ZA1 protein was detected using an anti-His antibody.
as §1

ZA1S peptide = molecular target: T1, ZA1S peptide; assay: far-Western, overlay or dot blot; 5 µg ZA1S peptide, BSA and non-specific peptide spotted on nitrocellulose; overlaid with 5 µg/mL biotinylated myosin A tail in 1% BSA/PBST, 2 h, room temperature; anti-biotin antibody; settings: both partners purified
T1 construct: also called shortened ZA1
T1 chain: DIDIDIMHE

ESAT6 [8] = format: cell-based, Mycobacterium tuberculosis; settings: ESAT6-pTRGnn versus CFP10-pBTnn, average of three independent assays ± standard deviation
[9] = molecular target: T2, recombinant MTIP-His (61–204 residues) (Plasmodium falciparum, UniProt Q8I4W8 61-204); assay: ITC; ITC200, 25 °C, phosphate buffer; MyoA tail in the syringe (100 µM for MTIP, 150 µM for ZA1), 10 µM MTIP or ZA1 in the cell; single site model; settings: both partners purified
T2 construct: source: E. coli BL21 (DE3), purified (Ni-NTA, native conditions, dialysed against PBS); not shown: His6, C-terminal, kept
T2 sequence: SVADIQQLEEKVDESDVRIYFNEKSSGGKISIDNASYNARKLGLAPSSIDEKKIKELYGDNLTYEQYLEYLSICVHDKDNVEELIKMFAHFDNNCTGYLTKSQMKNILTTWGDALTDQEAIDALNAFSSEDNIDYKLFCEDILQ

[10] = X-gal blue-white selection, DI-EL dicodon library, 30 °C, 48 h

MTIP-pBT (MTIP, bacterial two-hybrid fusion) (from UniProt Q8I4W8 61-204) (domain or fragment)
relative enzyme activity (Miller Units) [1]: 96.1 Miller Units

SGRHVFKELDIELDIDIDIDIDIDIDIELMHDIQLDIELDIDIMHMHDIPGDIDIMHSTMHQLDIELMHPGDIDIQLFKHVAAA [ZA3]
Interaction with myosin A tail in library screening (myosin A tail [2]; [10]): positive interactions

SGRHVFKPGMHELDIELELDIELDIDIDIELDIDIELDIDIDIDIQLYVDIELMHELDIDIRTELELDIPGELEFDIELDIDIFKHVAAA [ZA2]
Interaction with myosin A tail in library screening (myosin A tail [2]; [10]): positive interactions

SGRHVFKQLDIDIDIMHELDIELELDIDIDIMHPGDIDIDIDIDIQLDIELDIMHDIDIDIMHMHQLELELDIFKHVAAA [ZA1]
MTIP bound to myosin A tail (myosin A/MTIP complex [3]): The amount of MTIP bound to myosin A tail reduced with increasing ZA1 | Interaction with myosin A tail in library screening (myosin A tail [2]): positive interactions | Intensity of blue color on bacterial two-hybrid selection plate (myosin A tail [2]; X-gal plate, versus the other library hits): maximum intensity of blue color | Relative enzyme activity (β-galactosidase) (myosin A tail [2]; myosin A-pTRGnn versus ZA1-pBTnn, average of three independent assays ± standard deviation): 83.48 ± 0.82 Miller units | Kd (myosin A tail [4]): 719 nM | Heat changes on titration of pre-bound Myosin A-ZA1 complex into MTIP (MTIP): No heat changes are observed | Kd (myosin A-MTIP complex): 57000 nM | Interaction with unrelated protein ESAT6 (ESAT6 [5]): no interaction was found | Colony color change (disruption of myosin A/MTIP complex) (myosin A/MTIP complex [6]; E. coli triple co-transformant, X-gal plate with L-arabinose (2% w/v), 30 °C, 48 h): the color of the colonies changed from blue to white, indicating the disruption of myosin A/MTIP complex | Strength of myosin A/MTIP interaction (β-galactosidase) (myosin A/MTIP complex [6]; L-arabinose gradient 0–4 mM, 3 h, 37 °C, average of three independent assays): A reduction in the strength of interaction was observed with increasing amounts of ZA1 | Completeness of myosin A/MTIP disruption (myosin A/MTIP complex [6]; bacterial three-hybrid): we did not find a complete disruption of myosin A/MTIP complex | Interaction with myosin A tail (myosin A tail [7]): positive interaction between myosin A and ZA1 that was concentration-dependent

NKNIPSLLRVQAHIRKKMVAQ (peptide, UniProt Q8IDR3 798-818, looked up, also: biotinylated, also called myosin A peptide; MyoA tail) [biotinylated myosin A tail]
binding result (ZA1S peptide): binds

B1: CFP10: Culture filtrate protein 10 kDa, Mycobacterial protein, positive control partner of ESAT6 (protein)
chain: MAEMKTDAATLAQEAGNFERISGDLKTQIDQVESTAGSLQGQWRGAAGTAAQAAVVRFQEAANKQKQELDEISTNIRQAGVQYSRADEEQQQALSSQMGF
Relative enzyme activity (β-galactosidase), positive control (ESAT6 [8]; experiment of Figure 1c): 79.17 ± 1.67 Miller Units | Relative enzyme activity (β-galactosidase), positive control (ESAT6 [8]; experiment of Figure 2b): 98.02 ± 2.07 Miller units

B2: Myosin A tail (798–818 residues), peptide (peptide)
chain: NKNIPSLLRVQAHIRKKMVAQ
notes: source: acquired from Genescript (peptide)
Kd [9]: 452 nM | dH [9]: -4.7 kcal/mol
